This test has as its target BCL6 (Homo sapiens (Human), UniProt P41182). Briefly: Immunofluorescence high content imaging of BCL6 degradation in T47D cells. The note with it: T47D cells. It counts as cell-based. In short, it runs like this:
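BCL6 loss was quantified by high-content imaging (10×, 4 fields/well) after PFA fixation and anti-BCL6/Alexa-488 staining with Hoechst nuclear and CellMask counterstains. Compounds were applied for 3 days to T47D breast cancer cells in RPMI-10% FBS, 11 points, 3-fold steps, top 0.1 or 1 μM.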
For `CNC(=O)COc1cc2cc(Nc3nc(N4CCN(CC5CCCN5c5cccc6c5C(=O)N(C5CCC(=O)NC5=O)C6=O)CC4)ncc3Cl)ccc2n(C(C)C)c1=O` (stereo not drawn) [compound 398, 2-{[6-({5-chloro-2-[4-({1-[2-(2,6-dioxopiperidin-3-yl)-1,3-dioxo-2,3-dihydro-1H-isoindol-4-yl]pyrrolidin-2-yl}methyl)piperazin-1-yl]pyrimidin-4-yl}amino)-2-oxo-1-(propan-2-yl)-1,2-dihydroquinolin-3-yl]oxy}-N-methylacetamide], the Dmax (usually the greatest extent of degradation seen) was under 50% and the IC50 (as a rule, the concentration that gives 50% inhibition) is under 10 nM.

For `CNC(=O)COc1cc2cc(Nc3nc(N4CCN(CC5CCN(C(=O)c6ccc(OC)c(N7CCC(=O)NC7=O)c6)CC5)CC4)ncc3Cl)ccc2n(C(C)C)c1=O` [compound 401, 2-{[6-({5-chloro-2-[4-({1-[3-(2,4-dioxo-1,3-diazinan-1-yl)-4-methoxybenzoyl]piperidin-4-yl}methyl)piperazin-1-yl]pyrimidin-4-yl}amino)-2-oxo-1-(propan-2-yl)-1,2-dihydroquinolin-3-yl]oxy}-N-methylacetamide], the Dmax is under 50% and the IC50 was under 10 nM.

`CNC(=O)COc1cc2cc(Nc3nc(N4CCN(CC5CCN(C(=O)c6ccc(N7CCC(=O)NC7=O)cc6)CC5)CC4)ncc3Cl)ccc2n(C(C)C)c1=O` [compound 402, 2-{[6-({5-chloro-2-[4-({1-[4-(2,4-dioxo-1,3-diazinan-1-yl)benzoyl]piperidin-4-yl}methyl)piperazin-1-yl]pyrimidin-4-yl}amino)-2-oxo-1-(propan-2-yl)-1,2-dihydroquinolin-3-yl]oxy}-N-methylacetamide] returned an IC50 of at least 100 nM. The compound `CNC(=O)COc1cc2cc(Nc3nc(N4CCC(O[C@H]5C[C@H](N6CCC(c7ccc8c(c7)C(=O)N(C7CCC(=O)NC7=O)C8=O)CC6)C5)CC4)ncc3Cl)ccc2n(C(C)C)c1=O` (stereo partly drawn) [compound 403, 2-({6-[(5-chloro-2-{4-[(1r,3r)-3-{4-[2-(2,6-dioxopiperidin-3-yl)-1,3-dioxo-2,3-dihydro-1H-isoindol-5-yl]piperidin-1-yl}cyclobutoxy]piperidin-1-yl}pyrimidin-4-yl)amino]-2-oxo-1-(propan-2-yl)-1,2-dihydroquinolin-3-yl}oxy)-N-methylacetamide] gave a Dmax of 50 to 70% and an IC50 of under 10 nM. `CNC(=O)COc1cc2cc(Nc3nc(N4CCN(CC5CCN(c6cc7c(cc6OC)C(=O)N(C6CCC(=O)NC6=O)C7=O)CC5)CC4)ncc3Cl)ccc2n(C(C)C)c1=O` (stereo not drawn) [compound 404, 2-{[6-({5-chloro-2-[4-({1-[2-(2,6-dioxopiperidin-3-yl)-6-methoxy-1,3-dioxo-2,3-dihydro-1H-isoindol-5-yl]piperidin-4-yl}methyl)piperazin-1-yl]pyrimidin-4-yl}amino)-2-oxo-1-(propan-2-yl)-1,2-dihydroquinolin-3-yl]oxy}-N-methylacetamide] gave a Dmax of at least 70% and an IC50 of 10 to 50 nM. The compound `CNC(=O)COc1cc2cc(Nc3nc(N4CC5(CC(OC6CCN(c7ccc8c(c7)C(=O)N(C7CCC(=O)NC7=O)C8=O)CC6)C5)C4)ncc3Cl)ccc2n(C(C)C)c1=O` (stereo not drawn) [compound 405, 2-{[6-({5-chloro-2-[6-({1-[2-(2,6-dioxopiperidin-3-yl)-1,3-dioxo-2,3-dihydro-1H-isoindol-5-yl]piperidin-4-yl}oxy)-2-azaspiro[3.3]heptan-2-yl]pyrimidin-4-yl}amino)-2-oxo-1-(propan-2-yl)-1,2-dihydroquinolin-3-yl]oxy}-N-methylacetamide] gave an IC50 of at least 100 nM. The compound `CNC(=O)COc1cc2cc(Nc3nc(N4CC5(CC(OC6CCN(c7cccc8c7C(=O)N(C7CCC(=O)NC7=O)C8=O)CC6)C5)C4)ncc3Cl)ccc2n(C(C)C)c1=O` (stereo not drawn) [compound 406, 2-{[6-({5-chloro-2-[6-({1-[2-(2,6-dioxopiperidin-3-yl)-1,3-dioxo-2,3-dihydro-1H-isoindol-4-yl]piperidin-4-yl}oxy)-2-azaspiro[3.3]heptan-2-yl]pyrimidin-4-yl}amino)-2-oxo-1-(propan-2-yl)-1,2-dihydroquinolin-3-yl]oxy}-N-methylacetamide] returned a Dmax of at least 70% and an IC50 of under 10 nM. Regarding `CNC(=O)COc1cc2cc(Nc3nc(N4CCN(CC5CCN(C(=O)c6cccc(N7CCC(=O)NC7=O)c6)CC5)CC4)ncc3Cl)ccc2n(C(C)C)c1=O` [compound 407, 2-{[6-({5-chloro-2-[4-({1-[3-(2,4-dioxo-1,3-diazinan-1-yl)benzoyl]piperidin-4-yl}methyl)piperazin-1-yl]pyrimidin-4-yl}amino)-2-oxo-1-(propan-2-yl)-1,2-dihydroquinolin-3-yl]oxy}-N-methylacetamide], the IC50 is at least 100 nM. The same measure, in the same setting: the same measure for `CNC(=O)COc1cc2cc(Nc3nc(N4CCN(CC5CCN(C(=O)c6ccc(N7CCC(=O)NC7=O)c(OC)c6)CC5)CC4)ncc3Cl)ccc2n(C(C)C)c1=O` [compound 408, 2-{[6-({5-chloro-2-[4-({1-[4-(2,4-dioxo-1,3-diazinan-1-yl)-3-methoxybenzoyl]piperidin-4-yl}methyl)piperazin-1-yl]pyrimidin-4-yl}amino)-2-oxo-1-(propan-2-yl)-1,2-dihydroquinolin-3-yl]oxy}-N-methylacetamide]: at least 100 nM. As for `CNC(=O)COc1cc2cc(Nc3nc(N4CCC(O[C@H]5C[C@H](N6CCC(c7cccc8c7C(=O)N(C7CCC(=O)NC7=O)C8=O)CC6)C5)CC4)ncc3Cl)ccc2n(C(C)C)c1=O` (stereo partly drawn) [compound 409, 2-({6-[(5-chloro-2-{4-[(1r,3r)-3-{4-[2-(2,6-dioxopiperidin-3-yl)-1,3-dioxo-2,3-dihydro-1H-isoindol-4-yl]piperidin-1-yl}cyclobutoxy]piperidin-1-yl}pyrimidin-4-yl)amino]-2-oxo-1-(propan-2-yl)-1,2-dihydroquinolin-3-yl}oxy)-N-methylacetamide], the Dmax was in the range of 50 to 70% and the IC50 was under 10 nM. The matching figures for `CNC(=O)COc1cc2cc(Nc3nc(N4CCN(CC5CCC6(CC5)CN(c5ccc(OC)c7c5C(=O)N(C5CCC(=O)NC5=O)C7=O)C6)CC4)ncc3Cl)ccc2n(C(C)C)c1=O` (stereo not drawn) [compound 411, 2-{[6-({5-chloro-2-[4-({2-[2-(2,6-dioxopiperidin-3-yl)-7-methoxy-1,3-dioxo-2,3-dihydro-1H-isoindol-4-yl]-2-azaspiro[3.5]nonan-7-yl}methyl)piperazin-1-yl]pyrimidin-4-yl}amino)-2-oxo-1-(propan-2-yl)-1,2-dihydroquinolin-3-yl]oxy}-N-methylacetamide]: under 50% and under 10 nM.

Turning to `CNC(=O)COc1cc2cc(Nc3nc(N4CCC(OC5CC6(C5)CN(c5ccc7c(c5)CN(C5CCC(=O)NC5=O)C7=O)C6)CC4)ncc3Cl)ccc2n(C(C)C)c1=O` (stereo not drawn) [compound 412, 2-{[6-({5-chloro-2-[4-({2-[2-(2,6-dioxopiperidin-3-yl)-1-oxo-2,3-dihydro-1H-isoindol-5-yl]-2-azaspiro[3.3]heptan-6-yl}oxy)piperidin-1-yl]pyrimidin-4-yl}amino)-2-oxo-1-(propan-2-yl)-1,2-dihydroquinolin-3-yl]oxy}-N-methylacetamide], the Dmax is at least 70% and the half-inhibitory concentration (IC50) is under 10 nM. Compound `CNC(=O)COc1cc2cc(Nc3nc(N4CCC5(CC4)CN(CC4CCN(c6ccc7c(c6)CN(C6CCC(=O)NC6=O)C7=O)CC4)C5)ncc3Cl)ccc2n(C(C)C)c1=O` (stereo not drawn) [compound 413, 2-{[6-({5-chloro-2-[2-({1-[2-(2,6-dioxopiperidin-3-yl)-1-oxo-2,3-dihydro-1H-isoindol-5-yl]piperidin-4-yl}methyl)-2,7-diazaspiro[3.5]nonan-7-yl]pyrimidin-4-yl}amino)-2-oxo-1-(propan-2-yl)-1,2-dihydroquinolin-3-yl]oxy}-N-methylacetamide] displayed a Dmax of 50 to 70% and an IC50 of under 10 nM. Consider `CNC(=O)COc1cc2cc(Nc3nc(N4CCN(CC5CCN(c6cc(OC)cc7c6C(=O)N(C6CCC(=O)NC6=O)C7=O)CC5)CC4)ncc3Cl)ccc2n(C(C)C)c1=O` (stereo not drawn) [compound 414, 2-{[6-({5-chloro-2-[4-({1-[2-(2,6-dioxopiperidin-3-yl)-6-methoxy-1,3-dioxo-2,3-dihydro-1H-isoindol-4-yl]piperidin-4-yl}methyl)piperazin-1-yl]pyrimidin-4-yl}amino)-2-oxo-1-(propan-2-yl)-1,2-dihydroquinolin-3-yl]oxy}-N-methylacetamide], for which the Dmax is at least 70%. `CNC(=O)COc1cc2cc(Nc3nc(N4CCC(CN5CCC(c6ccc(N7CCC(=O)NC7=O)c(OC)c6)CC5)CC4)ncc3Cl)ccc2n(C(C)C)c1=O` [compound 415, 2-{[6-({5-chloro-2-[4-({4-[4-(2,4-dioxo-1,3-diazinan-1-yl)-3-methoxyphenyl]piperidin-1-yl}methyl)piperidin-1-yl]pyrimidin-4-yl}amino)-2-oxo-1-(propan-2-yl)-1,2-dihydroquinolin-3-yl]oxy}-N-methylacetamide] displayed an IC50 of at least 100 nM. Same read-out and setting: the value for `CNC(=O)COc1cc2cc(Nc3nc(N4CCC(CN5CCC(c6cccc(N7CCC(=O)NC7=O)c6)CC5)CC4)ncc3Cl)ccc2n(C(C)C)c1=O` [compound 416, 2-{[6-({5-chloro-2-[4-({4-[3-(2,4-dioxo-1,3-diazinan-1-yl)phenyl]piperidin-1-yl}methyl)piperidin-1-yl]pyrimidin-4-yl}amino)-2-oxo-1-(propan-2-yl)-1,2-dihydroquinolin-3-yl]oxy}-N-methylacetamide] was at least 100 nM. The compound `CNC(=O)COc1cc2cc(Nc3nc(N4CCC(CN5CCC6(CC5)CN(c5ccc7c(c5)CN(C5CCC(=O)NC5=O)C7=O)C6)CC4)ncc3Cl)ccc2n(C(C)C)c1=O` (stereo not drawn) [compound 417, 2-{[6-({5-chloro-2-[4-({2-[2-(2,6-dioxopiperidin-3-yl)-1-oxo-2,3-dihydro-1H-isoindol-5-yl]-2,7-diazaspiro[3.5]nonan-7-yl}methyl)piperidin-1-yl]pyrimidin-4-yl}amino)-2-oxo-1-(propan-2-yl)-1,2-dihydroquinolin-3-yl]oxy}-N-methylacetamide] returned a Dmax of at least 70% and an IC50 of under 10 nM.

These data come from patent US12310975B2, “Modulators of BCL6 proteolysis and associated methods of use” (Arvinas Operations, Inc., priority 2019, dated 2025).
